Assay results from patent US8106197B2, “Aminoheteroaryl compounds as protein kinase inhibitors” (Pfizer Inc., priority 2003, dated 2012).

Target: T1, HGFR (Homo sapiens, UniProt P08581)
T1 construct: purchased Upstate 14-526
Experiment: HGFR continuous-coupled spectrophotometric assay
Format: biochemical
Details: for inhibition at 1 µM: Table 6, percent c-MET inhibition at 1 μM, read-out: % inhibition; for I(%): Table 3, Ki(μM) or I(%), test concentration not given; for inhibition at 0.05 µM: Table 5, percent c-MET inhibition at 50 nM

T1 sequence (P08581 974-1390 limits assumed): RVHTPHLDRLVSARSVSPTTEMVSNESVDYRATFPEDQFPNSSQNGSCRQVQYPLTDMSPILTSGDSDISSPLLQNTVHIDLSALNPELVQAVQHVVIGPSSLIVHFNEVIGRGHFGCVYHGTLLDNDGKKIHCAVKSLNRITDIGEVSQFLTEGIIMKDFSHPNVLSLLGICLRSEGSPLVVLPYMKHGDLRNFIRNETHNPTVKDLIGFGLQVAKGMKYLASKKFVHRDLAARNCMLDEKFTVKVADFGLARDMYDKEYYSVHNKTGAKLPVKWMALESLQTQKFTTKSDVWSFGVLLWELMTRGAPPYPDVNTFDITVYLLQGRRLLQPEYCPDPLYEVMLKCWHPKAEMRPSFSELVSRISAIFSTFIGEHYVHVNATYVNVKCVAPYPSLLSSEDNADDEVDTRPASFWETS

% inhibition	inhibition at 1 µM	SMILES	other results
% inhibition = 17	–	Nc1ncc(-c2ccc(C(=O)N3CCC(N4CCCC4)CC3)cc2)cc1OCc1nc2ncccc2o1	–
% inhibition = 14	–	Cc1cc(C)cc(COc2cc(-c3ccc(C(=O)N4CCC(N5CCCC5)CC4)cc3)cnc2N)c1	–
–	36%	Nc1ncc(C(=O)NCc2ccccc2Br)cc1OCc1c(Cl)cccc1Cl	–
% inhibition = 33	–	Nc1ncc(-c2ccc(C(=O)N3CCC(N4CCCC4)CC3)cc2)cc1OCc1ccc(-c2cnc(Br)nc2)cc1	–
% inhibition = 7	–	Nc1ncc(-c2ccc(C(=O)N3CCC(N4CCCC4)CC3)cc2)cc1OCc1nc(NCCO)c2ccccc2n1	–
–	28%	NC(=O)CCNC(=O)c1cnc(N)c(OCc2c(Cl)cccc2Cl)c1	–
–	32%	CN1CCN(C(=O)c2cnc(N)c(OCc3c(Cl)cccc3Cl)c2)CC1	–
% inhibition = 26	–	Nc1ncc(-c2ccc(C(=O)N3CCC(N4CCCC4)CC3)cc2)cc1OCc1cc(Cl)ccc1Cl	–
–	28%	CN(CCC(O)c1ccccc1)C(=O)c1cnc(N)c(OCc2c(Cl)cccc2Cl)c1 (centres unmarked)	–
–	40%	Nc1ncc(C(=O)N2CCN(CCCN3CCOCC3)CC2)cc1OCc1c(Cl)cccc1Cl	–
–	10%	Nc1ncc(C(=O)N2CCS(=O)(=O)CC2)cc1OCc1c(Cl)cccc1Cl	–
% inhibition = 18	–	CC(C)NC(=O)c1ccc(-c2noc(COc3cc(-c4ccc(C(=O)N5CCC(N6CCCC6)CC5)cc4)cnc3N)n2)cc1	–
% inhibition = 32	–	Nc1ncc(-c2ccc(C(=O)N3CCC(N4CCCC4)CC3)cc2)cc1OCc1cccc(C(=O)Nc2ccc(N3CCCCC3)cc2)c1	–
% inhibition = 13	–	Nc1ncc(-c2ccc(C(=O)N3CCC(N4CCCC4)CC3)cc2)cc1OCc1ccc(C(F)(F)F)nc1	–
–	12%	NC(=O)c1ccc(CC2CCN(C(=O)c3cnc(N)c(OCc4c(Cl)cccc4Cl)c3)CC2)cc1	–
–	36%	CC(NC(=O)c1cnc(N)c(OCc2c(Cl)cccc2Cl)c1)c1ccc(O)cc1 (centres unmarked)	–
–	39%	CN(CC(N)=O)C(=O)c1cnc(N)c(OCc2c(Cl)cccc2Cl)c1	–
–	71%	CCN(CC)CC1(O)CCN(C(=O)c2cnc(N)c(OCc3c(Cl)cccc3Cl)c2)CC1	–

The next lines start with the molecule.

SMILES	% inhibition	inhibition at 1 µM	other results
Cc1ccc(COc2cc(-c3ccc(C(=O)N4CCC(N5CCCC5)CC4)cc3)cnc2N)cc1Cl	% inhibition = 26	–	–
Nc1ncc(C(=O)NC[C@]2(O)CC[C@H](c3ccccc3)CC2)cc1OCc1c(Cl)cccc1Cl	–	15%	–
Nc1ncc(-c2ccc(C(=O)N3CCC(N4CCCC4)CC3)cc2)cc1OCc1cccc(Oc2ccccc2)c1	% inhibition = 34	–	–
CCN1CCCC1CNC(=O)c1ccc(COc2cc(-c3ccc(C(=O)N4CCC(N5CCCC5)CC4)cc3)cnc2N)cc1 (centres unmarked)	% inhibition = 18	–	–
Cc1cc(C)n2nc(COc3cc(-c4ccc(C(=O)N5CCC(N6CCCC6)CC5)cc4)cnc3N)nc2n1	% inhibition = 18	–	–
Nc1ncc(C(=O)NC[C@H]2CC[C@H](c3nc4ccccc4[nH]3)CC2)cc1OCc1c(Cl)cccc1Cl	–	38%	–
Nc1ncc(C(=O)N2CCC(O)C2)cc1OCc1c(Cl)cccc1Cl (centres unmarked)	–	83%	–
Cc1cc(C)c(C)c(COc2cc(-c3ccc(C(=O)N4CCC(N5CCCC5)CC4)cc3)cnc2N)c1C [Example I-654, {4-[6-Amino-5-(2,3,5,6-tetramethyl-benzyloxy)-pyridin-3-yl]-phenyl)-(4-pyrrolidin-1-yl-piperidin-1-yl)-methanone]	–	–	I(%): 9%
CC(C)CNC(=O)c1ccc(Cl)c(CNC(=O)c2cnc(N)c(OCc3c(Cl)cccc3Cl)c2)c1	–	47%	–
COc1ccc(CNC(=O)c2cnc(N)c(OCc3c(Cl)cccc3Cl)c2)c(OC)c1	–	59%	–
CC(O)CNC(=O)c1cnc(N)c(OCc2c(Cl)cccc2Cl)c1 (centres unmarked)	–	49%	–
Cn1nc(-c2ccccc2)nc1COc1cc(-c2ccc(C(=O)N3CCC(N4CCCC4)CC3)cc2)cnc1N	% inhibition = 5	–	–
CC(Oc1cc(-c2ccc(C(=O)NC[C@H]3CCCO3)cc2)cnc1N)c1c(Cl)ccc(F)c1Cl (some centres unmarked)	–	–	inhibition at 0.05 µM: 60%
N#Cc1cccc(COc2cc(-c3ccc(C(=O)N4CCC(N5CCCC5)CC4)cc3)cnc2N)c1	% inhibition = 12	–	–
CN(C)c1ccc(NC(=O)c2cccc(COc3cc(-c4ccc(C(=O)N5CCC(N6CCCC6)CC5)cc4)cnc3N)c2)cc1	% inhibition = 23	–	–
Nc1ncc(C(=O)NCc2cc3cc[nH]c3cn2)cc1OCc1c(Cl)cccc1Cl	–	28%	–
Nc1ncc(C(=O)NCc2cn3cc(Cl)ccc3n2)cc1OCc1c(Cl)cccc1Cl	–	38%	–
Cc1nc2scc(COc3cc(-c4ccc(C(=O)N5CCC(N6CCCC6)CC5)cc4)cnc3N)c2c(=O)[nH]1	% inhibition = 10	–	–
CC(Oc1cc(-c2ccc(C(=O)N3CCN(CCC#N)CC3)cc2)cnc1N)c1c(Cl)ccc(F)c1Cl (centres unmarked)	–	–	inhibition at 0.05 µM: 77%

SMILES	% inhibition	inhibition at 1 µM	other results
Nc1ncc(C(=O)NCc2ncccc2O)cc1OCc1c(Cl)cccc1Cl	–	24%	–
Nc1ncc(C(=O)NCCCN2CCCC2=O)cc1OCc1c(Cl)cccc1Cl	–	34%	–
Nc1ncc(-c2ccc(C(=O)N3CCC(N4CCCC4)CC3)cc2)cc1OCc1cccnc1	% inhibition = 17	–	–
Nc1ncc(C(=O)N2CCC(COCc3ccccc3F)CC2)cc1OCc1c(Cl)cccc1Cl	–	10%	–
CC(=O)N(C)C1CCN(C(=O)c2ccc(-c3cnc(N)c(OC(C)c4c(Cl)ccc(F)c4Cl)c3)cc2)C1 (centres unmarked)	–	–	inhibition at 0.05 µM: 70%
Nc1ncc(C(=O)N2CCC(COc3cccc4cccnc34)C2)cc1OCc1c(Cl)cccc1Cl (centres unmarked)	–	35%	–
COc1cc(OC)nc(COc2cc(-c3ccc(C(=O)N4CCC(N5CCCC5)CC4)cc3)cnc2N)n1	% inhibition = 20	–	–
Nc1ncc(-c2ccc(C(=O)N3CCC(N4CCCC4)CC3)cc2)cc1OCc1ccc(C(=O)NCc2ccccn2)cc1	% inhibition = 7	–	–
Nc1ncc(-c2ccc(C(=O)N3CCC(N4CCCC4)CC3)cc2)cc1OCc1ccccc1OC(F)F	% inhibition = 27	–	–
Nc1ncc(-c2ccc(C(=O)N3CCC(N4CCCC4)CC3)cc2)cc1OCc1csc2ccc(Cl)cc12	% inhibition = 37	–	–
Nc1ncc(C(=O)NCc2ccc(C(F)(F)F)nc2)cc1OCc1c(Cl)cccc1Cl	–	17%	–
Nc1ncc(C(=O)NC2CCN(Cc3ccccc3)C2)cc1OCc1c(Cl)cccc1Cl (centres unmarked)	–	27%	–
Nc1ncc(C(=O)NCc2ccc(F)cc2)cc1OCc1c(Cl)cccc1Cl	–	32%	–
COc1ccc(OC)c(COc2cc(-c3ccc(C(=O)N4CCC(N5CCCC5)CC4)cc3)cnc2N)c1	% inhibition = 19	–	–
Nc1ncc(C(=O)N2CCN(CC(=O)Nc3ccccn3)CC2)cc1OCc1c(Cl)cccc1Cl	–	56%	–
CC(Oc1cc(-c2ccccc2CO)cnc1N)c1c(Cl)ccc(F)c1Cl (centres unmarked) [Example I-564, (2-{6-Amino-5-[1-(2,6-dichloro-3 fluoro-phenyl)-ethoxy]pyridin-3-yl}-phenyl)-methanol]	–	–	I(%): 21%
COc1cc(CCNC(=O)c2cnc(N)c(OCc3c(Cl)cccc3Cl)c2)cc(OC)c1O	–	25%	–
Nc1ncc(C(=O)NCC(O)c2ccc(O)cc2)cc1OCc1c(Cl)cccc1Cl (centres unmarked)	–	29%	–
Cc1ccccc1COc1cc(-c2ccc(C(=O)N3CC(C)NC(C)C3)cc2)cnc1N (centres unmarked) [Example I-624, {4-[6-Amino-5-(2-methyl-benzyloxy)-pyridin-3-yl]-phenyl}-(3,5-dimethyl-piperazin-1-yl)-methanone]	–	–	I(%): 0%
